SMILES strings stand for the structures.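 A five-concentration, 48-hour dose response in 96-well plates underlies each endpoint, interpolated linearly between surrounding concentrations. TGI: total growth inhibition.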 A value given as a limit tells only on which side of the number the result lay.

Test systems include HCT-15 colon; NCI-H23 lung; HOP-92 NSCLC; 786-0 renal; SNB-75 CNS; EKVX NSCLC; A498 renal; NCI-H522 lung; HS 578T breast; OVCAR-5 ovarian; LOX IMVI melanoma; SK-MEL-28 melanoma.
Holding throughout (experiment): NCI-60 cell line screen, 48 h

For `COc1cc(C(C)(C)C)c(OC(=O)/C=C/C(=O)O/C=C/[N+](=O)[O-])c(C(C)(C)C)c1`, the TGI is 48.4 µM with HCT-15 colon; 42.6 µM in the assay on NCI-H23 lung; > 100 µM in the assay with HOP-92 NSCLC; > 100 µM in the assay on 786-0 renal; > 100 µM with SNB-75 CNS; > 100 µM in the assay with EKVX NSCLC. For the same compound, the TGI in the assay on A498 renal is 96.6 µM; in the assay with NCI-H522 lung, 85.7 µM; in the assay on HS 578T breast, 63.9 µM; with OVCAR-5 ovarian, > 100 µM; with LOX IMVI melanoma it was 75.6 µM.

Consider `COC(=O)/C=C1\C(=O)N(C(C)=O)c2ccccc21`, for which the TGI in the assay with HCT-15 colon amounted to 26.2 µM; with NCI-H23 lung, 28.9 µM; with HOP-92 NSCLC, 16.8 µM; in the assay on 786-0 renal, 20.9 µM; in the assay on SNB-75 CNS it was 28.4 µM; in the assay with EKVX NSCLC, 31 µM. Besides, the TGI with A498 renal was 20 µM; in the assay on NCI-H522 lung it was 15.6 µM; with HS 578T breast, 25.8 µM; with SK-MEL-28 melanoma, 32.7 µM; in the assay on OVCAR-5 ovarian, 59.1 µM; with LOX IMVI melanoma it was 18.7 µM.

Take `C/C(=C/CC[C@](C)(OC1OC(CO)C(O)C(O)C1OC1OC(C)C(O)C(O)C1O)[C@H]1CC[C@]2(C)[C@@H]1CC[C@@H]1[C@@]3(C)CC[C@H](O)C(C)(C)[C@@H]3C[C@H](O)[C@]12C)CO` (some centres undefined): the TGI with NCI-H23 lung, with HOP-92 NSCLC, in the assay with 786-0 renal, in the assay with SNB-75 CNS, in the assay on EKVX NSCLC and in the assay on A498 renal was > 100 µM throughout. The TGI in the assay on NCI-H522 lung, in the assay with HS 578T breast, in the assay with SK-MEL-28 melanoma, with OVCAR-5 ovarian and in the assay with LOX IMVI melanoma was > 100 µM throughout.

On to `CCOC(=O)C(C(N)=O)c1nc2cc([N+](=O)[O-])ccc2nc1/C=C(\O)c1ccc(C)cc1` (centres undefined), for which the TGI is > 82.2 µM with HCT-15 colon; 34.3 µM in the assay with NCI-H23 lung; 40.8 µM in the assay with HOP-92 NSCLC; 28.7 µM in the assay with 786-0 renal; 42 µM in the assay on SNB-75 CNS; > 100 µM in the assay on EKVX NSCLC. For the same compound, the TGI in the assay with A498 renal is > 67.7 µM; with NCI-H522 lung it was 47.8 µM; with HS 578T breast, 75.1 µM; in the assay with SK-MEL-28 melanoma it was > 71.1 µM; in the assay with OVCAR-5 ovarian, > 100 µM; in the assay on LOX IMVI melanoma it was 57.4 µM.

As to `CCCCOP(=O)(OCCCC)C(NS(=O)(=O)c1ccccc1)(C(=O)OCC)C(F)(F)F` (centres undefined), the TGI in the assay on HCT-15 colon was > 100 µM; in the assay with NCI-H23 lung, > 100 µM; with HOP-92 NSCLC it was 71.8 µM; with 786-0 renal, 88.1 µM; with SNB-75 CNS, 78.1 µM; with EKVX NSCLC it was > 100 µM. Besides, the TGI was 76.1 µM with A498 renal; > 100 µM in the assay with HS 578T breast; 78.8 µM in the assay with SK-MEL-28 melanoma; > 100 µM with OVCAR-5 ovarian; 96.9 µM in the assay with LOX IMVI melanoma.

Take `O=C(OCc1ccccc1[N+](=O)[O-])N1c2ccccc2[C@@]23O[C@]24CCC[C@H]3C#C/C=C\C#C[C@H]14`: the TGI in the assay with HCT-15 colon, with NCI-H23 lung, in the assay on HOP-92 NSCLC, in the assay with 786-0 renal, in the assay on EKVX NSCLC and in the assay with A498 renal was > 100 µM throughout. Also, the TGI with NCI-H522 lung, in the assay with HS 578T breast, in the assay on SK-MEL-28 melanoma, in the assay with OVCAR-5 ovarian and with LOX IMVI melanoma was > 100 µM in each case.

Turning to `NCCCCN(CCCN)C(=O)OCc1ccccc1`, the TGI in the assay with HCT-15 colon, in the assay with NCI-H23 lung, in the assay with HOP-92 NSCLC, in the assay on 786-0 renal, in the assay on SNB-75 CNS and with EKVX NSCLC was > 100 µM each time. Moreover, the TGI in the assay on A498 renal, with NCI-H522 lung, with HS 578T breast, with SK-MEL-28 melanoma and in the assay with OVCAR-5 ovarian was > 100 µM throughout.

For `N#CCCN(CCN(CCN(C(=O)Nc1ccccc1)c1ccccc1)C(=O)Nc1ccccc1)C(=O)Nc1ccccc1`, the TGI with HCT-15 colon, with NCI-H23 lung, with HOP-92 NSCLC, in the assay with 786-0 renal, in the assay with SNB-75 CNS and in the assay on EKVX NSCLC was > 100 µM throughout. For the same compound, the TGI in the assay on A498 renal, in the assay on HS 578T breast, in the assay with SK-MEL-28 melanoma, in the assay on OVCAR-5 ovarian and in the assay on LOX IMVI melanoma was > 100 µM each time.

On to `CCCCc1ccc(Nc2nc(N)c3[nH]cnc3n2)cc1`, for which the TGI was determined as 66.1 µM in the assay on HCT-15 colon; 32.8 µM in the assay on NCI-H23 lung; 33.3 µM with HOP-92 NSCLC; 33.2 µM with 786-0 renal; 45.4 µM in the assay on EKVX NSCLC; 24.2 µM in the assay on A498 renal. The TGI with NCI-H522 lung stood at 28.8 µM; in the assay with HS 578T breast, 41.6 µM; with SK-MEL-28 melanoma it was 44.1 µM; in the assay with OVCAR-5 ovarian it was 73.5 µM; with LOX IMVI melanoma, 33.3 µM.

As to `COc1ccc(NC(=O)c2cc(NC(=O)/C=C/c3ccccc3)c(OC)c(OC)c2)cc1`, the TGI with HCT-15 colon is > 100 µM; in the assay on NCI-H23 lung it was > 100 µM; in the assay with HOP-92 NSCLC, > 100 µM; in the assay on 786-0 renal, > 100 µM; with SNB-75 CNS it was 48.5 µM; in the assay with EKVX NSCLC, > 100 µM. The TGI with A498 renal, with HS 578T breast, in the assay on SK-MEL-28 melanoma, with OVCAR-5 ovarian and in the assay with LOX IMVI melanoma was > 100 µM throughout.

As for `C(=C/c1ccc2nc(-c3ccc(/C=C/C=N/NC4=NCCCN4)cc3)cn2c1)/C=N/NC1=NCCCN1`, the TGI was > 100 µM with HCT-15 colon; > 100 µM with NCI-H23 lung; > 100 µM with HOP-92 NSCLC; > 100 µM with 786-0 renal; > 100 µM in the assay on SNB-75 CNS; 35.7 µM in the assay with EKVX NSCLC. In addition, the TGI in the assay on A498 renal was > 100 µM; in the assay on NCI-H522 lung, 34.3 µM; with HS 578T breast it was 42.2 µM; in the assay with SK-MEL-28 melanoma it was > 100 µM; with OVCAR-5 ovarian, > 100 µM.

In the case of `O=C1N2CCN=C2c2ccccc2C1(O)c1ccccc1` (centres undefined), the TGI in the assay with HCT-15 colon, with NCI-H23 lung, with HOP-92 NSCLC, with 786-0 renal, in the assay on SNB-75 CNS and with EKVX NSCLC was > 100 µM throughout. Further, the TGI in the assay with A498 renal, in the assay on HS 578T breast, in the assay with SK-MEL-28 melanoma, with OVCAR-5 ovarian and in the assay with LOX IMVI melanoma was > 100 µM each time.

The values are drawn from PubChem BioAssay (NCI).
